Data on one compound can be found in paper PMC5766510, “Development of a PET radioligand for potassium channels to image CNS demyelination” (Scientific Reports, 2018).

For series [1], the target named is non-inactivating Shaker channel from D. melanogaster (Drosophila melanogaster, UniProt P08510, DEL6-46). Kind of series: cell-based. As to conditions: relative K^+ current at +20 mV, Hill equation fit; read-out: Half-maximal inhibitory concentration (IC50). The protocol:
See SI for additional details.
(§1) CI95 = [Upper Limit. Lower Limit]; where Upper Limit = 10^(logEC50+s.d.) and Lower Limit = 10^(logEC50−s.d.). […]
exchanging the external solution (top and guard chambers) several times. After application, cells were voltage-clamped at least 5 min at 0mV, then voltage-clamped at -80mV for 1-2 min.
K+ currents were generated by applying series of 50 ms pulses from -70 mV to +40 mV in increments of 10 mV. The effect of the drug was assessed by measuring the relative intensity of the K+ current before and after applying varying drug concentration at a constant voltage (typically +20 mV) and at the end of the test-pulse. Data acquisition and analysis of the traces was performed using Gpatch software (Department of Anesthesiology, University of California, […]
Los Angeles). […]

Series [2] relates to voltage-gated K^+ channels. The experiment in a line: PET imaging in healthy Rhesus macaques. The series is classed as in vivo, Rhesus monkeys (macaca mulatta). The protocol:
Whole body PET/CT imaging was carried out on a Siemens mCT PET/CT. Monkeys were sedated with ketamine and intubated. Following intubation monkeys were placed in prone position on the scanner bed face forward with their head immobilized in a stereotaxic frame. The animals were then anesthetized with 1% isoflurane and kept under anesthesia throughout the whole procedure. A CT image was acquired first (approx. 5 min). After the CT, 5 mCi in 8 mL of saline of [^18F]3-F-4-AP was infused as a bolus through the cubital vein. Scans were obtained in list mode and reconstructed with a 3D ordinary Poisson OSEM algorithm as 30 frames of data (2 × 15 secs, 4 × 30 secs, 8 × 60 secs, 8 × 120 secs, 8 × 240 secs). All activities were decay-corrected to the time of injection of the radiopharmaceutical. Reconstructed images were processed using VivoQuant. ROIs for the major organs were hand drawn based on the CT and used to calculate time-activity curves.
Focused high-resolution brain imaging in Rhesus macaques: brain PET imaging was carried out on a Siemens HRRT PET scanner. Monkeys were sedated with ketamine and intubated. Following intubation monkeys were placed in prone position on the scanner bed face forward with their head immobilized in a stereotaxic frame. The animals were then anesthetized with 1% isoflurane and kept under anesthesia throughout the whole procedure. Monkeys received 5 mCi of [^18F]3-F-4-AP as a bolus through the cubital vein. Scans were obtained in list mode and reconstructed with a 3D ordinary Poisson OSEM algorithm as […] frames of data (8 × 15 secs, 8 × 30 secs, 16 × 60 secs, 16 × 120 secs, 16 × 240 secs). All activities were decay-corrected to the time of injection of the radiopharmaceutical. Reconstructed images were processed using VivoQuant. The Rhesus brain atlas from VivoQuant was fitted to the data and used to calculate time-activity curves for 43 different brain regions.

Series [3] relates to K^+ channels in explanted mouse optic nerves. Kind of series: Compound action potential (CAP) of dissected mouse optic nerves. Conditions: increase of maximum CAP amplitude, dysmyelinated (Shiverer) optic nerves, 22.2 °C; read-out: Half-maximal effective concentration (EC50). The protocol:
Therefore, we tested the effects of these compounds on the compound action potential (CAP) of dysmyelinated optic nerves from control and Shiverer mice (Fig. 2E).
Optic nerves were dissected from 12–16 week old Shiverer (Mbp^shi/shi) and control mice (Mbp^+/shi and Mbp^+/+). Compound action potentials (CAP) were recorded using suction electrodes as described by Stys et al.[91]. See SI for additional details.
as §1
Dissection of optic nerves: Optic nerves were dissected from 12-16 week old Shiverer (Mbpshi/shi) and control mice (Mbp+/shi and Mbp+/+). Mice were euthanized by CO2 overdose and the optic nerves were quickly dissected between the eyeball and the optic chiasm. The nerves […]
Optic nerve electrophysiology: Compound action potentials (CAP) from dysmyelinated nerves (Shiverer mice, Mbpshi/shi) and myelinated nerves (litermate controls, Mbp+/shi and Mbp+/+) were […]
between two suction electrodes (stimulus and recording electrodes) forming a tight seal on each end. Two additional electrodes were placed in the bath for reference. A supramaximal pulse (250 mV, 20 μs) was applied at the stimulating end of the nerve. The resulting CAP was amplified from the recording electrode using a high impedance low-noise amplifier (EG&G Princeton Applied Research Corporation) sampled at 100 kHz and filtered at 10 kHz. To assess […]
concentrations to the recording chamber after the CAP was allowed to stabilize for 5 min while […]
pulsing repeatedly. After each measurement, the chamber was washed for 5 min (flow 1 […]
mL/min) with oxygenated aCSF. […]
conduction and the temperature was monitored throughout the experiment. CAP recordings were acquired with a SBC6711 board (Innovative Integration) controlled by in-house written software. Analysis of the traces was done using an in-house software. The half-maximal […]
amplitude vs. concentration and fitted to the Hill equation using Origin. […]
Compound action potential of nerve recorded by suction electrode: a theoretical and experimental analysis. […]

The nature of series [4]: Partition coefficient octanol-water (logD). The series is classed as physicochemical. Conditions: pH 7.4, pH 7.4, n = 3; read-out: logD: experimental partition coefficient octanol:water. The protocol: The partition coefficient octanol-water at pH 7.4 was measured by adding 0.1 mg of the compound to a 10 mL 50:50 mixture of octanol:PBS. The vial was shaken vigorously followed by 1 min centrifugation at 1,000 g to separate the phases. The drug concentration in each phase of the drug was calculated from the area under the peak on reverse phase HPLC (10 μL sample) using a calibration curve.

The nature of a further series: in vitro. As to conditions: mouse, microsomes.
For series [5], the system named is voltage-gated K^+ channels. The experiment in a line: PET/CT imaging in healthy rats. The format is in vivo, rat. As to conditions: rats. An excerpt:
In order to evaluate the potential use of [^18F]3-F-4-AP as a PET tracer for the brain, we conducted PET combined with computed tomography (PET/CT) imaging in healthy rats after tail vein injection of [^18F]3-F-4-AP (0.15–0.30 μCi/g). We chose rats instead of mice because their larger brain size allows better spatial resolution. […] In order to overcome the limited intrinsic resolution of PET, we conducted ex vivo autoradiography in rats injected with [^18F]3-F-4-AP (1–2 μCi/g).
PET/CT imaging studies were carried out on a Trifoil Triumph™ Trimodality Preclinical microPET/SPECT/CT Imaging System (Norridge, CA) equipped with a X-PET detector constructed from BGO crystals. Rats were anesthetized with a mixture of 2% isoflurane and […] and kept under anesthesia throughout the whole procedure. A CT image was acquired first (at 40 kV, 140-uA beam current, and 256 projections, approx. 5 min). After the CT, 50–150 µCi of [^18F]3-F-4-AP was infused as a bolus through a tail vein injection port and a 25, 30 or 90 min list-mode PET scan performed. PET data are acquired using a sensitivity 5.9%, 250- to 750-keV energy window and 12-ns timing window in list-mode format with spatial resolution of 1.6–2.0 mm (FWHM), which can be binned into 3-dimensional (3D) sinograms corresponding to total and true events, respectively. Images were reconstructed using Fourier rebinning followed by a 2-dimensional ordered-subsets expectation maximization algorithm (OSEM) (4 iterations with 15 subsets). Reconstructed images were processed by using VivoQuant (inviCRO, LLC, Boston) version 2.1. Time activity curves were generated by processing the PET data in 5 min frames.

For a further series, the system named is C57Bl/6 J mice. Kind of series: In vivo effects (signs of neuroexcitation) after intraperitoneal injection. As to conditions: mouse, different doses. The protocol:
In this experiment, we injected each drug intraperitoneally at different concentrations into mice and looked for signs of neuroexcitation (Fig. 3B).
10-week-old female C57Bl/6 J mice were given an intraperitoneal injection of the drug under investigation and monitored continuously for 4 h. […] At least 72 h passed between injections to the same mice.

Series [6] in a line: Stability in mouse plasma. Conditions: after 1 h.
Series [7] in a line: Parallel artificial membrane permeability assay (PAMPA). (In PAMPA a lipid-coated filter parts donor from acceptor wells.)

non-inactivating Shaker channel from D. melanogaster, sequence (P08510 other isoform, or with tags, fused parts or gaps DEL6-46): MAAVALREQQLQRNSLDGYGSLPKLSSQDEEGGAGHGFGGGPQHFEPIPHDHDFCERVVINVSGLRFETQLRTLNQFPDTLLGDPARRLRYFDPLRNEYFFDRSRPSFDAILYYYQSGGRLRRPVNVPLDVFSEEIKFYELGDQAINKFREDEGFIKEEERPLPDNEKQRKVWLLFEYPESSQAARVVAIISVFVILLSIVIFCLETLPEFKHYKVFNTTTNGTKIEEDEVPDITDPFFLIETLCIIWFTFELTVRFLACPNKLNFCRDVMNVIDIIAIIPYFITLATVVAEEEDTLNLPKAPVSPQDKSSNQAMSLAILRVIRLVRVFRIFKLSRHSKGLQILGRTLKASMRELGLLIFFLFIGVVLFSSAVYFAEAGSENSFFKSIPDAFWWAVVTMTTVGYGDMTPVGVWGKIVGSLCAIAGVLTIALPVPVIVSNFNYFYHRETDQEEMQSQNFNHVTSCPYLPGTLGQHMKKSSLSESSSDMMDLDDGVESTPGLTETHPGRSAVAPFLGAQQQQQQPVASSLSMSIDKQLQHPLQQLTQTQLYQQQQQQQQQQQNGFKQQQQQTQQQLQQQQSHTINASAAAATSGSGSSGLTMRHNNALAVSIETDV

As usually defined, the logD is the decadic logarithm of the distribution of all forms, ionised or not, between an organic phase and buffer at a given pH. Usually half-life stands for the time in which the quantity being followed falls by half. Read a high half-life as slow decline. The term Papp denotes a coefficient for how fast a substance crosses the barrier. A lower Papp goes with poor permeation. On to `Nc1ccncc1F` [3-F-4-AP, 3-fluoro-4-aminopyridine], for which the IC50 in series [1] is 250 µM. Besides, the “effect of cold drug (self-block) on brain signal” value in series [2] (Rhesus macaques, 0.1 mg/kg) is listed as “no changes in brain signal or time activity curves were detected”. Besides, the “estimated seizure dose in monkeys” value in series [2] (estimated based on the rodent data) is 1.5 to 3.0 mg/kg. Moreover, the EC50 in series [3] turned out to be 96 µM. The logD in [4] came to 0.63. This compound gave a half-life in “in vitro” of 2.4 ± 0.183 h. For the same compound, the “effect of high doses of non-radiolabeled drug (self-block)” value in series [5] was “caused the breathing rate to increase dramatically, possibly due to seizures”. For the same compound, in the series on C57Bl/6 J mice, the “signs of neuroexcitation, summary in words relative to 4-AP” value is “active at the same concentration as 4-AP and to act faster”. In [6], the remaining in plasma is given as over 90%. In addition, the Papp in series [7] (PAMPA) stood at 1.56 ± 0.06 ×10⁻⁶ cm/s. Also, the “times more permeable than 4-AP” value in series [7] (ratio of Pe) was 6.6 times.
